The values below come from patent US5688773A, “Method of selectively destroying neoplastic cells” (priority 1994, dated 1997).

Where two headings read alike, the source gives them in different places.

Experiment [1] deals with 9L-Z tumors. The experiment in a line: Tumor growth delay study. In kind it is in vivo, Fischer 344 rats. The conditions noted are these: 100 mg/kg single intraperitoneal injection 7 days after implantation; tumors inhibited/total, 7-8 weeks. The protocol:
(§1) Tumor Growth Delay Studies: 9L cells were grown subcutaneously (s.c.) as solid tumors in female Fischer 344 rats. Adult female Fischer 344 rats (120-150g) were inoculated at 2×10^6 cells/s.c. site; cytochrome P450 2B1-negative cells (parental 9L or 9L-Z cells) were injected in one thigh and cytochrome P450 2B1-positive cells (9L-ZP or L450-2 cells) in the other thigh. This strategy was employed to control any potential effects that subcutaneous growth of the 9L tumor might have on liver cytochrome P450-dependent cyclophosphamide activation activity. Drug treatment was initiated seven days after tumor implantation. Rats were randomized and divided into two groups. One group was treated with cyclophosphamide at 100 mg/kg body weight given as a single intraperitoneal injection. Another group was injected with saline as control. Tumor size was monitored by caliper measurement at times ranging up to 7-8 weeks, at which point the animals were sacrificed.

Experiment [2] deals with L450-2 tumors. The experiment in a line: Tumor growth delay study. Format: in vivo, Fischer 344 rats. The conditions noted are these: 100 mg/kg single intraperitoneal injection 7 days after implantation; tumors inhibited/total, 7-8 weeks. As for the experimental part: as §1
Experiment [3] deals with 9L tumors. As to the kind of experiment: Tumor growth delay study. Particulars: 100 mg/kg single intraperitoneal injection 7 days after implantation; tumors inhibited/total, 7-8 weeks. Format: in vivo, Fischer 344 rats. The protocol:
as §1

The subject of experiment [4] is 9L-ZP tumors. The experiment in a line: Tumor growth delay study. In kind it is in vivo, Fischer 344 rats. Particulars: 100 mg/kg single intraperitoneal injection 7 days after implantation; tumors inhibited/total, 7-8 weeks. The protocol: as §1
The subject of experiment [5] is C6 cells co-cultured with C6-P450 cells across a filter. The experiment in a line: Secretory effect assay (insert system). Format: cell-based. The conditions noted are these: Rattus norvegicus. The protocol:
Secretory effect assay: To assess the effect of conditioned medium, cells were co-cultured in dishes using the "insert" system (Falcon). This consists of tissue culture dishes (diameter=3.5 cm), which contain a micropore membrane (pore diameter=0.45 μm) that physically separates cell populations plated into the upper and lower chambers but permits the exchange of components in the medium. C6 cells (3.4×10^5 cells) were plated into the bottom chamber, while C6-P450 (3.4×10^5 cells) or C6-Neo cells (3.4×10^5 cells) were plated into the upper chamber (on top of the filter) in a total volume of 5 mL of medium. After an overnight incubation, 0.5 mM CPA was added to this medium. Four days later, the membrane on which the C6-P450 or C6-Neo cells were growing was removed and then the number of C6 glioma cells in the lower chamber was determined by counting with a Coulter apparatus. Surviving C6 cells were then replated at a density of 2×10^5 cells per 10 cm dish without CPA. Nine days later, these cells were trypsinized and counted using the Coulter apparatus.

In experiment [6] the test system is C6 cells co-cultured with irradiated C6-P450 cells. As to the kind of experiment: Co-culture assay with irradiated cells. Format: cell-based. Particulars: Rattus norvegicus, light or radiation study, 96 h; 10% irradiated C6-P450 cells; 0.5 mM CPA, four days; read-out: decrease in the proliferation of C6 cells. As for the experimental part:
Co-culture assay: Co-cultures of C6-P450 and C6 cells were incubated in triplicate at different ratios (where 0, 10, 50, 90, and 100% of the cells were C6-P450 cells) to achieve a total number of 2×10^6 cells/10 cm dish. After 24 hours, 0.5 mM CPA was added and four days later, cells were counted as previously described. To compare the killing achieved by cell contact with that obtained by exposure to conditioned medium, the supernatant from each co-culture was harvested, filtered through 0.45 μm membrane filters, mixed in a 1:1 ratio with 5 mL of fresh medium and added to overnight cultures of C6 cells (2×10^6 cells/10 cm dish in triplicate). Four days later, C6 cells were washed, harvested and counted. To determine the specificity of the cell-mediated killing effect from the co-culture assays, C6 cells were incubated overnight with C6 cells that expressed the neomycin phosphotransferase gene (C6-Neo), with irradiated C6 cells, with irradiated C6-Neo, and with irradiated C6-P450 cells. γ-irradiation was performed by exposing cells to a total of 6000 rads emitted by a ^51 chromium source.

In experiment [7] the test system is C6 cells exposed to CM from C6. As to the kind of experiment: C6 colony formation after conditioned medium from drug-exposed cells. In kind it is cell-based, rat. Particulars: for Colony numbers: colonies six days later.
Experiment [8] concerns C6 glioma cells and other cells infected with this retrovirus. Particulars: cell culture; cited from earlier work.
For experiment [9], the system named is C6BAG and C6VIK cells. As to the kind of experiment: Ganciclovir treatment of combined subcutaneous tumors. Format: in vivo, nude mice. Particulars: 14 day course, 25 mg/kg twice a day intraperitoneally. As for the experimental part:
Sequential injections of 10^5 C6BAG cells followed immediately by 10^6 C6BU1 cells, C6VIK cells, or C6VIKWT cells at the same injection site, were carried out as above using 20 animals for each combination. After the tumors had reached 1 cm in diameter, ganciclovir treatment was begun for 14 days, 25 mg/kg twice a day intraperitoneally in half of each group, with the other half receiving PBS intraperitoneally as a control. Tumor volume was assessed as the percentage increase over the volume at the beginning of treatment through 17 days.

As to `O=P1(N(CCCl)CCCl)NCCCO1` (centres unmarked) [cyclophosphamide], the “Complete Tumor Growth Inhibition” value in experiment [1] is 0/9; in experiment [2], 11/11; in [3], 0/11; in [4], 8/9. The inhibition at 500 µM in experiment [5] (C6, 96 h, 0.5 mM CPA, 1:1 ratio, four days, read-out: decrease in the number of C6 cells) is around 50%; in [5] (C6, 216 h, replated without CPA, nine days, read-out: decrease in C6 cell number after trypsinization and replating), around 90%; in experiment [6] it was 30%. Moreover, the Colony numbers came to 247 ± 3 in experiment [7] (CM after 0.5 h of 0.5 mM CPA); 256 ± 7 in experiment [7] (CM after 1.5 h of 0.5 mM CPA); 257 ± 1 in [7] (CM after 3 h of 0.5 mM CPA); 260 ± 4 in [7] (CM after 6 h of 0.5 mM CPA); 245 ± 5 in experiment [7] (CM after 10 h of 0.5 mM CPA); 255 ± 14 in experiment [7] (CM after 24 h of 0.5 mM CPA). For the same compound, the Colony numbers in experiment [7] (CM after 32 h of 0.5 mM CPA) worked out at 240 ± 2; in experiment [7] (CM after 48 h of 0.5 mM CPA) it was 245 ± 6; in experiment [7] (CM after 72 h of 0.5 mM CPA), 260 ± 5; in [7] (CM after 96 h of 0.5 mM CPA), 260 ± 9. Moreover, the “Secretion effect, C6 colony number” value in [7] (Table V panel C, CM from treated C6 cultures) is reported as 271±14.2.

As to `Nc1nc(O)c2ncn(COC(CO)CO)c2n1` [ganciclovir], in [8], the “fold lower ganciclovir concentration killing infected vs uninfected cells” value is given as 100 fold. Further, the “Tumor volume compared to C6BAG and C6BU1 tumors” value in experiment [9] is given as “significant decrease in the tumor volume”.
